Assay results published in US9433621B2, “Substituted pyridine and pyrimidine derivatives and their use in treating viral infections” (Merck Sharp & Dohme Corp., priority 2010, dated 2016).

System: HCV replicon
Experiment: Cell-Based HCV Replicon Assay
Conditions: Hepatitis C virus; HCV Replicon assay, EC90 range, Table VI; read-out: EC90
Description: Cell-Based HCV Replicon Assay
To measure cell-based anti-HCV activity of the compounds of the present invention, replicon cells were seeded at 5000 cells/well in 96-well collagen I-coated Nunc plates in the presence of the compound of the invention. Various concentrations of a compound of the invention, typically in 10 serial 2-fold dilutions, were added to the assay mixture, the starting concentration of the compound ranging from 25 μM to 1 μM. The final concentration of DMSO was 0.5%, fetal bovine serum was 10%, in the assay media. Cells were harvested on day 3 by the addition of 1× cell lysis buffer (Ambion cat #8721). The replicon RNA level was measured using real time PCR (Taqman assay). The amplicon was located in 5B. The PCR primers were: 5B.2F, ATGGACAGGCGCCCTGA; 5B.2R, […]; the probe sequence was FAM-labeled CACGCCATGCGCTGCGG. GAPDH RNA was used as endogenous control and was amplified in the same reaction as NS5B (multiplex PCR) using primers and VIC-labeled probe recommended by the manufacturer (PE Applied Biosystem). The real-time RT-PCR reactions were run on ABI PRISM® 7900HT Sequence Detection System using the following program: 48′C for 30 min, 95′C for 10 min, 40 cycles of 95′C for 15 sec, 60′C for 1 min. The ΔCT values (CT5B-CTGAPDH) were plotted against the concentration of test compound and fitted to the sigmoid dose-response model using Graph Pad PRISM® software. EC50 was defined as the concentration of inhibitor necessary to achieve ΔCT=1 over the projected baseline; EC90 the concentration necessary to achieve ΔCT=3.2 over the baseline. Alternatively, to quantitate the absolute amount of replicon RNA, a standard curve was established by including serially diluted T7 transcripts of replicon RNA in the Taqman assay. All Taqman reagents were from PE Applied Biosystems. Such an assay procedure was described in detail in e.g. Malcolm et al., Antimicrobial Agents and Chemotherapy 50: 1013-1020 (2006).
HCV Replicon assay data for compounds of the invention that were tested were obtained using the above method.

`CCc1nccc2sc(-c3c(C)nc(NC4CC4)nc3N[C@@H]3C[C@H](CS(=O)(=O)c4ccc(F)c(C)c4)[C@@H](O)[C@H]3O)nc12` [Example 5016] was tested, and the EC90 was < 0.5 µM.
`CCc1nccc2sc(-c3c(C)nc(NCC4CC4)nc3N[C@@H]3C[C@H](CS(=O)(=O)c4ccc(F)c(C)c4)[C@@H](O)[C@H]3O)nc12` [Example 5017] was tested, and the EC90 was < 0.5 µM.
`CCc1nccc2sc(-c3c(C)nc(NCC(C)(C)C)nc3N[C@@H]3C[C@H](CS(=O)(=O)c4ccc(F)c(C)c4)[C@@H](O)[C@H]3O)nc12` [Example 5018] was tested, and the EC90 was < 0.5 µM.
In the case of `CCc1nccc2sc(-c3c(C)nc(NCC(F)(F)F)nc3N[C@@H]3C[C@H](CS(=O)(=O)c4ccc(F)c(C)c4)[C@@H](O)[C@H]3O)nc12` [Example 5019], the EC90 is reported as < 0.5 µM.
In the case of `Cc1cc(S(=O)(=O)C[C@H]2C[C@@H](Nc3nc(N)nc(C)c3-c3nc4c(C)nccc4s3)[C@H](O)[C@@H]2O)ccc1F` [Example 5020], the EC90 is reported as < 0.5 µM.
With `CCc1nccc2sc(-c3c(C)nc(N)nc3N[C@@H]3C[C@H](CS(=O)(=O)c4ccc(F)c(C)c4)[C@@H](O)[C@H]3O)nc12` [Example 5021] the EC90 was < 0.5 µM.
For `CCNC(=O)N[C@H]1C[C@@H](Nc2nc(N[C@H](C)C3CC3)nc(C)c2-c2nc3c(C4CC4)nccc3s2)[C@H](O)[C@@H]1O` [Example 5022], the EC90 was < 0.5 µM.
With `Cc1nc(N[C@H](C)C2CC2)nc(N[C@@H]2C[C@H](NC(=O)NCc3ccc(F)cc3)[C@@H](O)[C@H]2O)c1-c1nc2c(C3CC3)nccc2s1` [Example 5023] the EC90 was < 0.5 µM.
For `CCNC(=S)N[C@H]1C[C@@H](Nc2nc(N[C@H](C)C3CC3)nc(C)c2-c2nc3c(C4CC4)nccc3s2)[C@H](O)[C@@H]1O` [Example 5024], the EC90 was < 0.5 µM.
In the case of `CNS(=O)(=O)C[C@H]1C[C@@H](Nc2nc(NCC3CC3)nc(C)c2-c2nc3c(C)nccc3s2)[C@H](O)[C@@H]1O` [Example 5025], the EC90 is reported as < 0.5 µM.
In the case of `CNS(=O)(=O)C[C@H]1C[C@@H](Nc2nc(NCC3CC3)nc(C)c2-c2nc3c(C)nc(C)cc3s2)[C@H](O)[C@@H]1O` [Example 5026], the EC90 is reported as < 0.5 µM.
`CNS(=O)(=O)C[C@H]1C[C@@H](Nc2nc(NC3CC3)nc(C)c2-c2nc3c(C)nc(C)cc3s2)[C@H](O)[C@@H]1O` [Example 5027] was tested, and the EC90 was < 0.5 µM.
In the case of `Cc1nc(N[C@H](C)c2c(F)c(F)c(C)c(F)c2F)nc(N[C@@H]2C[C@H](C(C)(C)O)[C@@H](O)[C@H]2O)c1-c1nc2c(N)nccc2s1` [Example 5028], the EC90 is reported as < 0.5 µM.
In the case of `Cc1nc(N)nc(N[C@@H]2C[C@H](C(C)(C)O)[C@@H](O)[C@H]2O)c1-c1nc2c(N)nccc2s1` [Example 5029], the EC90 is reported as < 0.5 µM.
`Cc1nc(NC2(C(C)C)CC2)nc(N[C@@H]2C[C@H](C(C)(C)O)[C@@H](O)[C@H]2O)c1-c1nc2c(C)nccc2s1` [Example 5030] was tested, and the EC90 was 0.5 to 5 µM.
`Cc1nc(NC2(CC(C)C)CC2)nc(N[C@@H]2C[C@H](C(C)(C)O)[C@@H](O)[C@H]2O)c1-c1nc2c(C)nccc2s1` [Example 5031] gave an EC90 of 0.5 to 5 µM.
In the case of `Cc1nc(NC2COC3(CCCCC3)C2)nc(N[C@@H]2C[C@H](C(C)(C)O)[C@@H](O)[C@H]2O)c1-c1nc2c(C)nccc2s1` (stereo partly drawn) [Example 5032], the EC90 is reported as < 0.5 µM.
With `CO[C@H](C)CNc1nc(C)c(-c2nc3c(C)nccc3s2)c(N[C@@H]2C[C@H](COc3c(F)ccc(F)c3F)[C@@H](O)[C@H]2O)n1` [Example 5033] the EC90 was < 0.5 µM.
In the case of `CO[C@H](C)CNc1nc(C)c(-c2nc3c(C)nccc3s2)c(N[C@@H]2C[C@H](COc3cc(F)c(F)cc3F)[C@@H](O)[C@H]2O)n1` [Example 5034], the EC90 is reported as < 0.5 µM.
For `Cc1nc(NCC(F)(F)C(F)(F)F)nc(N[C@@H]2C[C@H](C(C)(C)O)[C@@H](O)[C@H]2O)c1-c1nc2c(N)nccc2s1` [Example 5035], the EC90 was < 0.5 µM.
`COCCNc1nc(C)c(-c2nc3c(C)nccc3s2)c(N[C@@H]2C[C@H](C(C)(C)NS(C)(=O)=O)[C@@H](O)[C@H]2O)n1` [Example 5036] was tested, and the EC90 was < 0.5 µM.
`COC[C@@H](C)Nc1nc(C)c(-c2nc3c(C)nccc3s2)c(N[C@@H]2C[C@H](C(C)(C)NS(C)(=O)=O)[C@@H](O)[C@H]2O)n1` [Example 5037] was tested, and the EC90 was < 0.5 µM.
For `CO[C@H](C)CNc1nc(C)c(-c2nc3c(C)nccc3s2)c(N[C@@H]2C[C@H](C(C)(C)NS(C)(=O)=O)[C@@H](O)[C@H]2O)n1` [Example 5038], the EC90 was < 0.5 µM.
With `Cc1nc(NCCSC(C)(C)C)nc(N[C@@H]2C[C@H](C(C)(C)NS(C)(=O)=O)[C@@H](O)[C@H]2O)c1-c1nc2c(C)nccc2s1` [Example 5039] the EC90 was < 0.5 µM.
For `COC[C@@H](C)Nc1nc(C)c(-c2nc3c(C)nccc3s2)c(N[C@@H]2C[C@H](C(C)(C)NC(=O)OC)[C@@H](O)[C@H]2O)n1` [Example 5040], the EC90 was < 0.5 µM.
For `COC(=O)NC(C)(C)[C@H]1C[C@@H](Nc2nc(NC[C@@H](C)OC)nc(C)c2-c2nc3c(C)nccc3s2)[C@H](O)[C@@H]1O` [Example 5041], the EC90 was < 0.5 µM.
In the case of `COCCNc1nc(C)c(-c2nc3c(C)nccc3s2)c(N[C@@H]2C[C@H](C(C)(C)NC(=O)OC)[C@@H](O)[C@H]2O)n1` [Example 5042], the EC90 is reported as < 0.5 µM.
In the case of `Cc1nc(NCC2CC2)nc(N[C@@H]2C[C@H](C(C)(C)NS(C)(=O)=O)[C@@H](O)[C@H]2O)c1-c1nc2c(C)nccc2s1` [Example 5044], the EC90 is reported as < 0.5 µM.
`Cc1nc(NCC(C)(C)C)nc(N[C@@H]2C[C@H](C(C)(C)NS(C)(=O)=O)[C@@H](O)[C@H]2O)c1-c1nc2c(C)nccc2s1` [Example 5045] was tested, and the EC90 was < 0.5 µM.
In the case of `COC(=O)NC(C)(C)[C@H]1C[C@@H](Nc2nc(NCC3CC3)nc(C)c2-c2nc3c(C)nccc3s2)[C@H](O)[C@@H]1O` [Example 5046], the EC90 is reported as < 0.5 µM.
With `COC(=O)NC(C)(C)[C@H]1C[C@@H](Nc2nc(NCC(C)(C)C)nc(C)c2-c2nc3c(C)nccc3s2)[C@H](O)[C@@H]1O` [Example 5047] the EC90 was < 0.5 µM.
In the case of `Cc1nc(NC2CC2)nc(N[C@@H]2C[C@H](C(C)(C)NS(C)(=O)=O)[C@@H](O)[C@H]2O)c1-c1nc2c(C)nccc2s1` [Example 5048], the EC90 is reported as < 0.5 µM.
For `Cc1nc(NC2CCC2)nc(N[C@@H]2C[C@H](C(C)(C)NS(C)(=O)=O)[C@@H](O)[C@H]2O)c1-c1nc2c(C)nccc2s1` [Example 5049], the EC90 was < 0.5 µM.
`COC(=O)NC(C)(C)[C@H]1C[C@@H](Nc2nc(NC3CC3)nc(C)c2-c2nc3c(C)nccc3s2)[C@H](O)[C@@H]1O` [Example 5050] was tested, and the EC90 was < 0.5 µM.
With `Cc1nc(NCC2CC2)nc(N[C@@H]2C[C@H](C(C)(C)N=[N+]=[N-])[C@@H](O)[C@H]2O)c1-c1nc2c(C3CC3)nccc2s1` [Example 5051] the EC90 was < 0.5 µM.
In the case of `CCS(=O)(=O)C(C)(C)[C@H]1C[C@@H](Nc2nc(NCC3CC3)nc(C)c2-c2nc3c(C)nccc3s2)[C@H](O)[C@@H]1O` [Example 5057], the EC90 is reported as < 0.5 µM.
In the case of `CCS(=O)(=O)C(C)(C)[C@H]1C[C@@H](Nc2nc(NC3CCC3)nc(C)c2-c2nc3c(C)nccc3s2)[C@H](O)[C@@H]1O` [Example 5058], the EC90 is reported as < 0.5 µM.
With `CCS(=O)(=O)C(C)(C)[C@H]1C[C@@H](Nc2nc(NCC3CC3)nc(C)c2-c2nc3c(C4CC4)nccc3s2)[C@H](O)[C@@H]1O` [Example 5059] the EC90 was < 0.5 µM.
With `CCS(=O)(=O)C(C)(C)[C@H]1C[C@@H](Nc2nc(NC3CCC3)nc(C)c2-c2nc3c(C4CC4)nccc3s2)[C@H](O)[C@@H]1O` [Example 5060] the EC90 was < 0.5 µM.
With `CCS(=O)(=O)C(C)(C)[C@H]1C[C@@H](Nc2nc(NCc3c(F)cc(F)cc3F)nc(C)c2-c2nc3c(C4CC4)nccc3s2)[C@H](O)[C@@H]1O` [Example 5061] the EC90 was < 0.5 µM.
`Cc1nc(NC2CCC2)nc(N[C@@H]2C[C@H](C(C)(C)S(C)(=O)=O)[C@@H](O)[C@H]2O)c1-c1nc2c(C)nccc2s1` [Example 5062] was tested, and the EC90 was < 0.5 µM.
In the case of `Cc1nc(NCc2c(F)cc(F)cc2F)nc(N[C@@H]2C[C@H](C(C)(C)S(C)(=O)=O)[C@@H](O)[C@H]2O)c1-c1nc2c(C)nccc2s1` [Example 5063], the EC90 is reported as < 0.5 µM.
For `Cc1nc(NC2CCC2)nc(N[C@@H]2C[C@H](C(C)(C)S(C)(=O)=O)[C@@H](O)[C@H]2O)c1-c1nc2c(C3CC3)nccc2s1` [Example 5064], the EC90 was < 0.5 µM.
In the case of `Cc1nc(NCc2c(F)cc(F)cc2F)nc(N[C@@H]2C[C@H](C(C)(C)S(C)(=O)=O)[C@@H](O)[C@H]2O)c1-c1nc2c(C3CC3)nccc2s1` [Example 5065], the EC90 is reported as < 0.5 µM.
In the case of `Cc1nc(NCC2CC2)nc(N[C@@H]2C[C@H](C(C)(C)S(=O)(=O)c3ccccc3)[C@@H](O)[C@H]2O)c1-c1nc2c(C)nccc2s1` [Example 5066], the EC90 is reported as < 0.5 µM.
For `Cc1nc(NCC(F)(F)F)nc(N[C@@H]2C[C@H](C(C)(C)S(=O)(=O)c3ccccc3)[C@@H](O)[C@H]2O)c1-c1nc2c(C)nccc2s1` [Example 5067], the EC90 was < 0.5 µM.
For `Cc1nc(NCC(C)(C)C)nc(N[C@@H]2C[C@H](C(C)(C)S(=O)(=O)c3ccccc3)[C@@H](O)[C@H]2O)c1-c1nc2c(C)nccc2s1` [Example 5068], the EC90 was < 0.5 µM.
With `Cc1nc(N)nc(N[C@@H]2C[C@H](C(C)(C)S(C)(=O)=O)[C@@H](O)[C@H]2O)c1-c1nc2c(C)nccc2s1` [Example 5069] the EC90 was < 0.5 µM.
